# In patent US12427210B2, “Compounds comprising a fibroblast activation protein ligand and use thereof” (priority 2019, dated 2025):
# Numbered stars: 1 amine (or outer) side, 2 acyl side, 3 side chain; on linkers, the order of the positions; unused ones are H or OH. Bridge positions count the residues as written; N and C are the ends. Peptide text beside a SMILES is read from it. * marks the point of attachment. X1 = O=C(O)CN1CCN(CC(=O)O)CCN(CC(=O)N2CCN(Cc3cc(C[*:1])cc(C[*:2])c3)CC2)CCN(CC(=O)O)CC1; Hexanoyl = CCCCCC(=O)*
# Columns and labels:
# Experiment in all cases: biochemical
# ETA (h) = ETA (h) (Homo sapiens, UniProt P25101); conditions: read-out: % Inhibition of Specific Binding
# A20 = molecular target: T1, A20 (Homo sapiens, UniProt P21580); conditions: read-out: Percentage inhibition (%)
# T1 sequence (P21580 1-790): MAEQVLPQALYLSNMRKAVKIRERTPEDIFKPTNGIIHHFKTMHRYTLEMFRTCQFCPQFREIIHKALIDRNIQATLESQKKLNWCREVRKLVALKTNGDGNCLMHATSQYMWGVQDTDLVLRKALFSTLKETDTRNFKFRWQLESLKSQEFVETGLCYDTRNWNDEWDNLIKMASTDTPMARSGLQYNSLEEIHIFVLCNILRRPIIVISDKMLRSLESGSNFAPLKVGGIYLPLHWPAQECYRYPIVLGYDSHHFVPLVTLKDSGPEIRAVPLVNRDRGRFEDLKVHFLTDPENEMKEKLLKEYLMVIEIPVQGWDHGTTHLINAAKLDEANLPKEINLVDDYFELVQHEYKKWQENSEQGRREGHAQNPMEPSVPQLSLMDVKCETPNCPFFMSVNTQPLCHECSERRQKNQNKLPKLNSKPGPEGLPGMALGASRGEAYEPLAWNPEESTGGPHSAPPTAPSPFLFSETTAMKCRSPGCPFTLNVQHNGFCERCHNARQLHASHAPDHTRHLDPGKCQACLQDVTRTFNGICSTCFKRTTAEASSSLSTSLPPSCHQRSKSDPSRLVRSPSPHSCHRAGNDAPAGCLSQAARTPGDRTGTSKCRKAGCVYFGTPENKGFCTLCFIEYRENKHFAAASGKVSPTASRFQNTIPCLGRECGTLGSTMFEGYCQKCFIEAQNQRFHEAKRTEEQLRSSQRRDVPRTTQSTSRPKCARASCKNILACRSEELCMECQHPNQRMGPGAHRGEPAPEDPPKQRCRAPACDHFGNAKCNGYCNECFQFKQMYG
# D1 (h) = D1 (h) (Homo sapiens, UniProt P21728); conditions: read-out: % Inhibition of Specific Binding
# D1 (h), sequence (P21728 whole entry): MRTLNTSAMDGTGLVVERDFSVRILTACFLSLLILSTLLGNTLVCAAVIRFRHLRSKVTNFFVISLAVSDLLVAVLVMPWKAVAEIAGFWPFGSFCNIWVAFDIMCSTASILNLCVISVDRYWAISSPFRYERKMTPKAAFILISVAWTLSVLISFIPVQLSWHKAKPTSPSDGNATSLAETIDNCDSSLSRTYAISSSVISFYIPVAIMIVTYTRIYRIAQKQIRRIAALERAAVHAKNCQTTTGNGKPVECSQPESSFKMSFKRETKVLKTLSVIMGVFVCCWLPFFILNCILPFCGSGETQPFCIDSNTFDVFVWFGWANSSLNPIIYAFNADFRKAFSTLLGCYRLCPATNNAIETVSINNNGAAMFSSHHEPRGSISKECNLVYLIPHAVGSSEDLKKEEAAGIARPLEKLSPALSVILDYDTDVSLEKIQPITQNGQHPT
# Cathepsin L = Cathepsin L (Homo sapiens, UniProt P07711); conditions: read-out: Percentage inhibition (%)
# Cathepsin L, sequence (P07711 114-333, species assumed): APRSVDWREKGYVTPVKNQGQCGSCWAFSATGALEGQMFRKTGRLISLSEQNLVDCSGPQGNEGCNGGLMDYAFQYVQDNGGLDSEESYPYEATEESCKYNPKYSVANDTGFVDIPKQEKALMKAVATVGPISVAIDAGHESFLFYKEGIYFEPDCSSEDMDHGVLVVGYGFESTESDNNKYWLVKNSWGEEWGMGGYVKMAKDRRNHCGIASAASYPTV
# [1] = molecular target: serine protease NS3 (a.a. 3-181) from Hepatitis C virus genotype 2a (Hepatitis C virus genotype 2a, UniProt Q99IB8); conditions: read-out: Percentage inhibition (%)
# serine protease NS3 (a.a. 3-181) from Hepatitis C virus genotype 2a, sequence (Q99IB8 1033-1211 limits assumed, other chains not shown): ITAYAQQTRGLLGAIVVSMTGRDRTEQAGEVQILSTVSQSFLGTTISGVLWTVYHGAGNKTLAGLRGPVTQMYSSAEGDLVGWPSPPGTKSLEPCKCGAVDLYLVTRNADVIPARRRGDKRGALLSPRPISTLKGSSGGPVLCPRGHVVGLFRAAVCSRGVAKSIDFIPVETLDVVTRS
# [2] = molecular target: norepinephrine transporter (h) (Homo sapiens, UniProt P23975); conditions: read-out: % Inhibition of Specific Binding
# Caspase-8 = Caspase-8 (Homo sapiens, UniProt Q14790); conditions: read-out: Percentage inhibition (%)
# Caspase-8, sequence (Q14790 217-374 limits assumed, species assumed): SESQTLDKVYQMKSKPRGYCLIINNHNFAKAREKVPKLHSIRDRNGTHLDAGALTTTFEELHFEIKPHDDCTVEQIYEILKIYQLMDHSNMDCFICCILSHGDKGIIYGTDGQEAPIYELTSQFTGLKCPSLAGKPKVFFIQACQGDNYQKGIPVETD
# Caspase-8, sequence (Q14790 385-479 limits assumed, species assumed): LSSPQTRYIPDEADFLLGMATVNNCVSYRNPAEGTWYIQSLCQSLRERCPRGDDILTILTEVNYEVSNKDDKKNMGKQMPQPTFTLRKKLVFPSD
# COX1(h) = COX1(h) (Homo sapiens, UniProt P23219); conditions: read-out: % Inhibition of Specific Binding
# COX1(h), sequence (P23219 24-599): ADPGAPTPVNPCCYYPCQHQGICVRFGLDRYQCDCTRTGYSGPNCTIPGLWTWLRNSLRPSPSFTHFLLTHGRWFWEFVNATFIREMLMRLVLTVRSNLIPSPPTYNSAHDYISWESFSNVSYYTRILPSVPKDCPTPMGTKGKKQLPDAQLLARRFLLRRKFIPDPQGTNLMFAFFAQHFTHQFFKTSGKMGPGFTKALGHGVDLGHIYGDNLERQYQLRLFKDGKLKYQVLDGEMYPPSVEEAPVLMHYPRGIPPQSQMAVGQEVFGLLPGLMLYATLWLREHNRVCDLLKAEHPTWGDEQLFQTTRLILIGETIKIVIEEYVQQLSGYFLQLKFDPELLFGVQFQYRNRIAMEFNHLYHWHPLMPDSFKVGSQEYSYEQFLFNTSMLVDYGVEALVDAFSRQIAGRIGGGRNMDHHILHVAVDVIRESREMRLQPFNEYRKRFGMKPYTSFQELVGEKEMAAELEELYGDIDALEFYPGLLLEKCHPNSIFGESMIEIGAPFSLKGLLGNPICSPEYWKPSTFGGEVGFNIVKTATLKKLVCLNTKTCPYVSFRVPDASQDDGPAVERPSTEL
# [3] = molecular target: Ubiquitin carboxyl-terminal hydrolase 10 (Homo sapiens, UniProt Q14694); conditions: read-out: Percentage inhibition (%)
# Ubiquitin carboxyl-terminal hydrolase 10, sequence (Q14694 whole entry): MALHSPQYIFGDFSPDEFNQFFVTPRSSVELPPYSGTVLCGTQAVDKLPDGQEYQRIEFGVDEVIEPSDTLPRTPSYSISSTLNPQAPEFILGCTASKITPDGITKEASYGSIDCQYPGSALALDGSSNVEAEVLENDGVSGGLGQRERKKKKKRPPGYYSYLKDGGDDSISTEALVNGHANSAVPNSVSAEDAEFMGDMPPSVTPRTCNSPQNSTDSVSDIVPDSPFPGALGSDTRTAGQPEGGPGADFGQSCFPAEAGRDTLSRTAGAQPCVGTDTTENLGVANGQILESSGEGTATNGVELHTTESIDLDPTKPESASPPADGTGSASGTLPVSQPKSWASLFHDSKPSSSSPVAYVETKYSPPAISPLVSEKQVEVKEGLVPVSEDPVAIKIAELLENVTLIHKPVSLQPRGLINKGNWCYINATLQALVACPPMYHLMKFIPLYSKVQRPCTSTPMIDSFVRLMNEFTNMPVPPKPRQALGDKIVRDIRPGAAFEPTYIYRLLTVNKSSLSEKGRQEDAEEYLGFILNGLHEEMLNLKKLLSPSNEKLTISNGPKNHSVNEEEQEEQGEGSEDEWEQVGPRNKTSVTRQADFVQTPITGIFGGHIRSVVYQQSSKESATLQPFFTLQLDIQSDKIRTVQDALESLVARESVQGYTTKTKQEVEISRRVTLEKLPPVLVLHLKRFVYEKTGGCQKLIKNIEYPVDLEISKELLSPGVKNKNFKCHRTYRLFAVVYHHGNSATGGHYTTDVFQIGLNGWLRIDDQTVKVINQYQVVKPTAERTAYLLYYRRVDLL
# [4] = molecular target: Ubiquitin carboxyl-terminal hydrolase 14 (Homo sapiens, UniProt P54578); conditions: read-out: Percentage inhibition (%)
# Ubiquitin carboxyl-terminal hydrolase 14, sequence (P54578 whole entry): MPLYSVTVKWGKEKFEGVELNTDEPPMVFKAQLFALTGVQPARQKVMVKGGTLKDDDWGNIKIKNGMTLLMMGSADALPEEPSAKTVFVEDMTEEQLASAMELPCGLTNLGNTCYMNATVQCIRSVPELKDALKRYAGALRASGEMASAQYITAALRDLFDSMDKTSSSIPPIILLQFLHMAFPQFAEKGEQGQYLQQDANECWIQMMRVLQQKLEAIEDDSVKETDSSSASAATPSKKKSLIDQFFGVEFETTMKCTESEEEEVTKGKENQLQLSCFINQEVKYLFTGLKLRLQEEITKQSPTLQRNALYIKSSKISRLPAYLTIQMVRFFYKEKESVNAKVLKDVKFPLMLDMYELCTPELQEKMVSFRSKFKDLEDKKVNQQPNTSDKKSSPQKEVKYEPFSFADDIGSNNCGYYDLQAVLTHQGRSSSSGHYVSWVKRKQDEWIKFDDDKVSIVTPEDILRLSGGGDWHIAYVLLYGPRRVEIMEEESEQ
# [5] = molecular target: N neuronal alpha 4beta 2 (h) (Homo sapiens, UniProt P17787+P43681); conditions: read-out: % Inhibition of Specific Binding
# M3 (h) = M3 (h) (Homo sapiens, UniProt P20309); conditions: read-out: % Inhibition of Specific Binding
# mu (MOP) (h) = mu (MOP) (h) (Homo sapiens, UniProt P35372); conditions: read-out: % Inhibition of Specific Binding
# mu (MOP) (h), sequence (P35372 whole entry): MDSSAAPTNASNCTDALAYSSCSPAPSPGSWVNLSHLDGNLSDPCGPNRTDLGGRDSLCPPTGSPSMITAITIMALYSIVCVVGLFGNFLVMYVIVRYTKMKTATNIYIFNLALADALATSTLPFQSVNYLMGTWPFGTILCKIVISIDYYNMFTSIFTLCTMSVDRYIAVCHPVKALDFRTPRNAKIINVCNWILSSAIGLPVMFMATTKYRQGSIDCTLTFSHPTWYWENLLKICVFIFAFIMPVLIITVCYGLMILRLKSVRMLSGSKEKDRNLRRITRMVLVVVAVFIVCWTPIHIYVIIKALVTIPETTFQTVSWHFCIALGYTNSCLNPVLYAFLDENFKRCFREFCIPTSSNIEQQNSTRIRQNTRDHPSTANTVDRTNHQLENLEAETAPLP
# M2 (h) = M2 (h) (Homo sapiens, UniProt P08172); conditions: read-out: % Inhibition of Specific Binding
# 5-HT2B (h) = 5-HT2B (h) (Homo sapiens, UniProt P41595); conditions: read-out: % Inhibition of Specific Binding
# PDE3A (h) = PDE3A (h) (Homo sapiens, UniProt Q14432); conditions: read-out: % Inhibition of Specific Binding
# Renin = molecular target: T2, Renin (Homo sapiens, UniProt P00797); conditions: read-out: Percentage inhibition (%)
# T2 sequence (P00797 67-406): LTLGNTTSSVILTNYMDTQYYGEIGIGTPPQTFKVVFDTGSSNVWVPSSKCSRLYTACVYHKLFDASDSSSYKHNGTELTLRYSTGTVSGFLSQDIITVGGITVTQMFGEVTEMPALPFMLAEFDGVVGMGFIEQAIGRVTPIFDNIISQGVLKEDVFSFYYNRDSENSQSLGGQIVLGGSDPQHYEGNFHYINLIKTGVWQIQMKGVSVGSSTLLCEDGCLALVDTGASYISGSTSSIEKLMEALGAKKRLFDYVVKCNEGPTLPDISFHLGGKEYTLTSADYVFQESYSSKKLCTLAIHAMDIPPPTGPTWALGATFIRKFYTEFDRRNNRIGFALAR
# kappa (h) (KOP) = kappa (h) (KOP) (Homo sapiens, UniProt P41145); conditions: read-out: % Inhibition of Specific Binding
# kappa (h) (KOP), sequence (P41145 whole entry): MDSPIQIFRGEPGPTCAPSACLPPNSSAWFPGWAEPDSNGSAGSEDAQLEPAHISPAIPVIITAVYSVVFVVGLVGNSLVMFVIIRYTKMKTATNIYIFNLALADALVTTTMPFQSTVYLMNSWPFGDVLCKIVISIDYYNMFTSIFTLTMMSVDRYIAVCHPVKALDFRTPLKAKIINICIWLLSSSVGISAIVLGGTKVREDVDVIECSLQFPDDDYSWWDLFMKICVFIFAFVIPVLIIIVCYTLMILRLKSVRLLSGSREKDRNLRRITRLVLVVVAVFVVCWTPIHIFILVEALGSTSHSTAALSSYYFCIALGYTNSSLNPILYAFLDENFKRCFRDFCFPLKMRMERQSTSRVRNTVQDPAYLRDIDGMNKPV
# [6] = molecular target: Ubiquitin carboxyl-terminal hydrolase 7 (Homo sapiens, UniProt Q93009); conditions: read-out: Percentage inhibition (%)
# Ubiquitin carboxyl-terminal hydrolase 7, sequence (Q93009 whole entry): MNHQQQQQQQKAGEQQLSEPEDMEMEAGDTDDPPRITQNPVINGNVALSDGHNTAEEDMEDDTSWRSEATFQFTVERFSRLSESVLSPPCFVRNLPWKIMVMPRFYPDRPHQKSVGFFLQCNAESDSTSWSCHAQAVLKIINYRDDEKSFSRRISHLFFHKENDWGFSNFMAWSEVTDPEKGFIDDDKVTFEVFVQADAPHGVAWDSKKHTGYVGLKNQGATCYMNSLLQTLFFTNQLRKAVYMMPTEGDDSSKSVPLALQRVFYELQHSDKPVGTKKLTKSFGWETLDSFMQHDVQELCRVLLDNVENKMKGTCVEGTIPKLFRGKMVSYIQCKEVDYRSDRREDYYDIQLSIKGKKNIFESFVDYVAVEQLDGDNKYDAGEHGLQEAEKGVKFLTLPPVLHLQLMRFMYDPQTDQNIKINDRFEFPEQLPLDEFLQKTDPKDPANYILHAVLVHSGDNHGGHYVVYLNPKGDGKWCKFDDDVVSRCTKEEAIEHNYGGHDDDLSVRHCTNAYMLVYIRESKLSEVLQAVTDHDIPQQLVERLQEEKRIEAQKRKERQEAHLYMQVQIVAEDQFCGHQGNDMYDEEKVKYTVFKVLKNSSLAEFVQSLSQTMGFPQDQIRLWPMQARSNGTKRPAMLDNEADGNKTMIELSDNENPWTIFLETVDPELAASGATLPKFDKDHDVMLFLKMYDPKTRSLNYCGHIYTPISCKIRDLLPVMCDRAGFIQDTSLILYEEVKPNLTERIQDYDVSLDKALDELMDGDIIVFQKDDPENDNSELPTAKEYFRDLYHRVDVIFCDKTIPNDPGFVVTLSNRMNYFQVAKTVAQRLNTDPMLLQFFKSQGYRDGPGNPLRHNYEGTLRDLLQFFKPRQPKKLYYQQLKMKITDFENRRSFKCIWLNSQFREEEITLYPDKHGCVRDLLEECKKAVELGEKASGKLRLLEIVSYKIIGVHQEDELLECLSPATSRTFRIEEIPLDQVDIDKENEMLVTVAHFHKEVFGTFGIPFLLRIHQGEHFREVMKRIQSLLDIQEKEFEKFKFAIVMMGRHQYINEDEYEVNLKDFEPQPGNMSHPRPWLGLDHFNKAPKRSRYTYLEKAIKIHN
SMILES,inhibition at 10 µM (ETA (h)),inhibition at 1 µM (A20),inhibition at 10 µM (A20),inhibition at 10 µM (D1 (h)),inhibition at 1 µM (Cathepsin L),inhibition at 10 µM (Cathepsin L),inhibition at 1 µM [1],inhibition at 10 µM [1],inhibition at 10 µM [2],inhibition at 1 µM (Caspase-8),inhibition at 10 µM (Caspase-8),inhibition at 10 µM (COX1(h)),inhibition at 1 µM [3],inhibition at 10 µM [3],inhibition at 1 µM [4],inhibition at 10 µM [4],inhibition at 10 µM [5],inhibition at 10 µM (M3 (h)),inhibition at 10 µM (mu (MOP) (h)),inhibition at 10 µM (M2 (h)),also measured
"CCCCCC(=O)N[C@H]1CSCc2cc(cc(CN3CCN(C(=O)CN4CCN(CC(=O)O)CCN(CC(=O)O)CCN(CC(=O)O)CC4)CC3)c2)CSC[C@@H](C(=O)N[C@@H](CC(=O)O)C(N)=O)NC(=O)[C@H](Cc2ccccc2)NC(=O)[C@H](CCC(N)=O)NC(=O)[C@H]([C@@H](C)O)NC(=O)[C@@H]2CCCN2C(=O)[C@@H]2CCCN2C1=O [Compound 3BP-3407, Hex-[Cys(tMeBn(DOTA-PP))-Pro-Pro-Thr-Gln-Phe-Cys]-Asp-NH2] (Hexanoyl-CPPTQFCD-NH2; linker 1-7 via X1)",-18%,2%,-4%,0%,3%,6%,0%,-2%,-8%,0%,0%,10%,-2%,5%,-1%,5%,-8%,10%,2%,-4%,inhibition at 10 µM (5-HT2B (h)): 2%; inhibition at 10 µM (PDE3A (h)): -3%; inhibition at 1 µM (Renin): -1%; inhibition at 10 µM (Renin): 3%; inhibition at 10 µM (kappa (h) (KOP)): 7%; inhibition at 1 µM [6]: 5%; inhibition at 10 µM [6]: 5%
"CCCCCC(=O)N[C@H]1CSCc2cc(CSCCNC(=O)CN3CCN(CC(=O)O)CCN(CC(=O)O)CCN(CC(=O)O)CC3)cc(c2)CSC[C@@H](C(=O)O)NC(=O)[C@H](Cc2ccccc2)NC(=O)[C@H](CCC(N)=O)NC(=O)[C@H]([C@@H](C)O)NC(=O)[C@@H]2CCCN2C(=O)[C@@H]2CCCN2C1=O [Compound 3BP-3554, Hex-[Cys(tMeBn(DOTA-AET))-Pro-Pro-Thr-Gln-Phe-Cys]-OH]",6%,1%,0%,7%,0%,-6%,-13%,-40%,-5%,0%,-3%,8%,1%,-1%,1%,2%,-2%,1%,-10%,7%,inhibition at 10 µM (5-HT2B (h)): 3%; inhibition at 10 µM (PDE3A (h)): -37%; inhibition at 1 µM (Renin): 0%; inhibition at 10 µM (Renin): -1%; inhibition at 10 µM (kappa (h) (KOP)): 10%; inhibition at 1 µM [6]: 1%; inhibition at 10 µM [6]: 1%
